According to patent US10597388B2, “Pyridazinone herbicides” (FMC CORPORATION, priority 2014, dated 2020):

Experiments:
Assay in all cases: Test D controlled growth environment herbicide test, pre- and postemergence
Type in all cases: in vivo
[1] = test system: galium (catchweed bedstraw, Galium aparine)
Method in brief: (§1)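 Rating is visual, 0–100 scale (100 = complete control), made against untreated plants 14–21 d after treatment in controlled growth conditions. Postemergence sprays went onto 1- to 4-leaf plants in peat medium; preemergence sprays onto silt loam after sowing; formulation included a surfactant.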

[2] = test system: blackgrass (Alopecurus myosuroides)
Method in brief: as §1

[3] = test system: canarygrass (Phalaris minor)
Method in brief: as §1

[4] = test system: buckwheat, wild (wild buckwheat, Polygonum convolvulus)
Method in brief: as §1

[5] = test system: pigweed (Amaranthus retroflexus)
Method in brief: as §1

[6] = test system: ryegrass, Italian (Italian ryegrass, Lolium multiflorum)
Method in brief: as §1

[7] = test system: field poppy (Papaver rhoeas)
Method in brief: as §1

[8] = test system: Russian thistle (Salsola kali)
Method in brief: as §1

[9] = test system: kochia (Kochia scoparia)
Method in brief: as §1

[10] = test system: chickweed (common chickweed, Stellaria media)
Method in brief: as §1

[11] = test system: wheat, winter (winter wheat, Triticum aestivum)
Method in brief: as §1

[12] = test system: bluegrass (annual bluegrass, Poa annua)
Method in brief: as §1

[13] = test system: foxtail, green (green foxtail, Setaria viridis)
Method in brief: as §1

[14] = Postemergence, 31 g ai/ha, scale 0 to 100 (0 no effect, 100 complete control)
[15] = Postemergence, 125 g ai/ha, visual rating on scale 0 (no effect) to 100 (complete control), 14 to 21 d
[16] = Postemergence, 250 g ai/ha, scale 0 to 100 (0 no effect, 100 complete control)
[17] = Preemergence, 62 g ai/ha, scale 0 to 100 (0 no effect, 100 complete control)
[18] = Preemergence, 125 g ai/ha, scale 0 to 100 (0 no effect, 100 complete control)
[19] = Preemergence, 250 g ai/ha, scale 0 to 100 (0 no effect, 100 complete control)
[20] = postemergence, 62 g ai/ha, scale 0 to 100, 0 no effect, 100 complete control

CCC(=O)Oc1c(C)nn(C)c(=O)c1-c1c(C)sc2c(C)cc(C)cc12 [Compound 28]
80: Plant response rating, Blackgrass [2, 20] | Plant response rating, Canarygrass [3, 15] | Plant response rating, Ryegrass, Italian [6, 15] | Plant response rating, Ryegrass, Italian [6, 20] | Field Poppy plant response rating [7, 14] | Plant response rating, Russian Thistle [8, 15] | Plant response rating, Foxtail, Green [13, 17]
5: Wheat, Winter plant response rating [11, 14] | Plant response rating, Wheat, Winter [11, 15] | Plant response rating, Wheat, Winter [11, 20]
50: Plant response rating, Kochia [9, 15] | Plant response rating, Bluegrass [12, 16]
75: Blackgrass plant response rating [2, 14] | Canarygrass plant response rating [3, 14] | Plant response rating, Canarygrass [3, 20] | Pigweed plant response rating [5, 14] | Ryegrass, Italian plant response rating [6, 14] | Plant response rating, Russian Thistle [8, 20] | Plant response rating, Kochia [9, 16] | Bluegrass plant response rating [12, 19] | Plant response rating, Foxtail, Green [13, 20]
65: Plant response rating, Kochia [9, 19] | Plant response rating, Bluegrass [12, 18] | Foxtail, Green plant response rating [13, 14]
100: Galium plant response rating [1, 14] | Plant response rating, Galium [1, 15] | Plant response rating, Galium [1, 16] | Plant response rating, Galium [1, 19] | Plant response rating, Galium [1, 20] | Buckwheat, Wild plant response rating [4, 14] | Plant response rating, Buckwheat, Wild [4, 15] | Plant response rating, Buckwheat, Wild [4, 16] | Plant response rating, Buckwheat, Wild [4, 19] | Plant response rating, Buckwheat, Wild [4, 20] | Plant response rating, Pigweed [5, 15] | Plant response rating, Pigweed [5, 17] | Plant response rating, Pigweed [5, 18] | Plant response rating, Pigweed [5, 19] | Plant response rating, Ryegrass, Italian [6, 18] | Plant response rating, Ryegrass, Italian [6, 19] | Plant response rating, Field Poppy [7, 15] | Plant response rating, Field Poppy [7, 16] | Plant response rating (scale of 0 to 100), Field Poppy ([7]; Preemergence, 31 g ai/ha) | Plant response rating, Field Poppy [7, 19] | Chickweed plant response rating [10, 14] | Plant response rating, Chickweed [10, 15] | Plant response rating, Chickweed [10, 16] | Plant response rating (scale of 0 to 100), Chickweed ([10]; Preemergence, 31 g ai/ha) | Plant response rating, Chickweed [10, 17] | Plant response rating, Chickweed [10, 18] | Plant response rating, Chickweed [10, 19] | Plant response rating, Chickweed [10, 20] | Plant response rating, Foxtail, Green [13, 18] | Plant response rating, Foxtail, Green [13, 19]
95: Blackgrass plant response rating [2, 19] | Plant response rating, Canarygrass [3, 18] | Plant response rating, Canarygrass [3, 19] | Plant response rating, Ryegrass, Italian [6, 17] | Plant response rating, Field Poppy [7, 17] | Plant response rating, Field Poppy [7, 18]
15: Plant response rating (scale of 0 to 100), Galium ([1]; Preemergence, 31 g ai/ha) | Plant response rating, Russian Thistle [8, 18] | Plant response rating, Wheat, Winter [11, 16]
90: Plant response rating, Pigweed [5, 16] | Plant response rating (scale of 0 to 100), Pigweed ([5]; Preemergence, 31 g ai/ha) | Plant response rating, Pigweed [5, 20] | Plant response rating (scale of 0 to 100), Ryegrass, Italian ([6]; Preemergence, 31 g ai/ha) | Plant response rating, Field Poppy [7, 20] | Plant response rating, Foxtail, Green [13, 16]
45: Plant response rating, Bluegrass [12, 17]
60: Plant response rating, Galium [1, 17]
35: Plant response rating, Russian Thistle [8, 19] | Kochia plant response rating [9, 14] | Plant response rating, Bluegrass [12, 15]
40: Plant response rating, Kochia [9, 20]
70: Russian Thistle plant response rating [8, 14] | Plant response rating (scale of 0 to 100), Foxtail, Green ([13]; Preemergence, 31 g ai/ha)
85: Plant response rating, Galium [1, 18] | Plant response rating, Blackgrass [2, 15] | Plant response rating, Blackgrass [2, 16] | Plant response rating (scale of 0 to 100), Blackgrass ([2]; Preemergence, 31 g ai/ha) | Plant response rating, Blackgrass [2, 17] | Plant response rating, Blackgrass [2, 18] | Plant response rating, Canarygrass [3, 16] | Plant response rating (scale of 0 to 100), Canarygrass ([3]; Preemergence, 31 g ai/ha) | Plant response rating, Canarygrass [3, 17] | Plant response rating, Ryegrass, Italian [6, 16] | Plant response rating, Russian Thistle [8, 16] | Plant response rating, Foxtail, Green [13, 15]
30: Plant response rating, Kochia [9, 18] | Plant response rating (scale of 0 to 100), Bluegrass ([12]; Preemergence, 31 g ai/ha) | Plant response rating, Bluegrass [12, 20]
0: Plant response rating (scale of 0 to 100), Buckwheat, Wild ([4]; Preemergence, 31 g ai/ha) | Plant response rating, Buckwheat, Wild [4, 17] | Plant response rating (scale of 0 to 100), Russian Thistle ([8]; Preemergence, 31 g ai/ha) | Plant response rating, Russian Thistle [8, 17] | Plant response rating (scale of 0 to 100), Wheat, Winter ([11]; Preemergence, 31 g ai/ha) | Plant response rating, Wheat, Winter [11, 17] | Plant response rating, Wheat, Winter [11, 18] | Plant response rating, Wheat, Winter [11, 19]
20: Plant response rating, Buckwheat, Wild [4, 18] | Plant response rating (scale of 0 to 100), Kochia ([9]; Preemergence, 31 g ai/ha) | Plant response rating, Kochia [9, 17] | Bluegrass plant response rating [12, 14]
